Structures can show the parent of a compound that is named as a salt.
Experiment: Raman spectra after processing steps (hydrate stability in tablets)
Assay type: physicochemical
Protocol: Vardenafil hydrochloride trihydrate and anhydrate can be identified and distinguished from one another e.g. by means of Raman spectroscopy.
Raman spectra were recorded after the processing steps of precompacting, subsequent mixing, pressing and coating (FIGS. 1 and 2). For this, the film was scratched off from the film-coated tablets beforehand. The Raman spectra of the pure vardenafil hydrochloride trihydrate and of the anhydrate are also shown for comparison.
In the relevant range of 1694-1702 cm^−1, the auxiliaries used in Example 1 had no influence on the vardenafil bands (measurement on a placebo tablet is not also shown).

## CCCc1nc(C)c2c(=O)[nH]c(-c3cc(S(=O)(=O)N4CCN(CC)CC4)ccc3OCC)nn12 [Vardenafil hydrochloride trihydrate, {2-ethoxy-5-[(4-ethyl-1-piperazinyl)sulfonyl]phenyl}-5-methyl-7-propylimidazo-[5,1-f][1,2,4]triazin-4(3H)one]
Example 4: coating at intake air temperature of 60-65° C.
  stability of the hydrate under the processing conditions: dehydrated
Examples 1 to 3: approx. 23° C., 33-35% rel. humidity, coating intake air 45° C.
  stability of the hydrate under the processing conditions: stable

Reference: patent US8772292B2, “Process for the preparation of a medicament comprising vardenafil hydrochloride trihydrate” (Ratiopharm GmbH, priority 2007, dated 2014)
